For this assay, the system named is 186277-243-T-J2-PDC complex spheroid viability. The assay can be described thus: Anticancer human tumor 186277-243-T-J2-PDC patient-derived colon adenocarcinoma cell line growth inhibition [POLQ]. Particulars: for viability, T/C: stronger effect = lower value. Here is the method: Multicellular complex tumor spheroid response to Polymerase (POL) inhibitors (novobiocin, ART-558, RP6685) in combination with a variety of drugs and investigational agents in selected tumor cell lines
The POL inhibitors (novobiocin, ART-558, and RP6685) were evaluated both individually and in combination with standard of care and investigational anticancer small molecules within a complex spheroid model of solid tumors. . Complex spheroids include a stromal component modeled by human endothelial cells (HUVEC) and fibroblasts modeled by human mesenchymal stem cells (MSCs). The concentration ranges selected for each drug and investigational agent were based upon clinically achievable concentrations if the clinical Cmax of the agent was known.
Compounds. The drugs and investigational agents: novobiocin (NSC847541), ART-558 (NSC835418), RP-6685 (NSC848927), peposertib (NSC802822), ceralasertib (NSC780249), elimusertib (NSC800525), camonsertib (NSC841442), AZD-1390 (NSC803789), olaparib (NSC753686), talazoparib (NSC767125), rucaparib (NSC756644), sotorasib (NSC818433), MRTX-1133 (NSC836407), SN-38 (NSC673596), topotecan (NSC609699), epotoside (NSC141540), doxorubicin (NSC123127), gemcitabine (NSC613327), 5-fluorouracil (NSC19893), paclitaxel (NSC125973), vemurafenib (NSC761431), MSA-2 (NSC828583), SN-011 (NSC837082), adavosertib (NSC754352), prexasertib (NSC758257), carboplatin (NSC241240) and oxaliplatin (NSC266046), were obtained from the National Cancer Institute (NCI) Developmental Therapeutics Program Chemical Repository (21). The FDA-approved anticancer drug set is available from the Developmental Therapeutics Program at https://dtp.cancer.gov/organization/dscb/obtaining/. […] The stock solutions were prepared in dimethyl sulfoxide (DMSO, Sigma-Aldrich, St. Louis, MO, cat. D2650), except for the platinum compounds which were prepared in saline (Quality Biological, Gaithersburg, MD, cat. 114-055-101), at 800-fold the tested concentration and stored at -70 degrees C prior to their use. All drugs and investigational agents were tested over a range starting from a high concentration at or near the clinical Cmax and decreasing in half-log increments. If the clinical Cmax for an agent had not been determined, the highest concentration tested was 10 microM, except for SN-38, which was tested at a high concentration of 1 microM.
Cell Culture. All cells were maintained in an incubator at 37 degrees C and 5% CO2 with 95% humidity. The PDC lines were cultured according to standard operating procedures established by the NCI PDMR (https://pdmr.cancer.gov). Table 3 of the manuscript, lists the cell lines along with the number of the three cell types plated to form the mct-spheroids and media for tumor cell growth. After thawing, all PDC lines, except 997537-175-T-J1-PDC and 415267-285-R-J2-PDC, were cultured in Matrigel-coated flasks prepared with a working solution of 1X Ham's F-12 nutrient mix, without supplementation (Thermo Fisher Scientific, cat. 11765054), 100 U/mL penicillin-streptomycin (Thermo Fisher Scientific, cat. 15140122), and 2.5% Matrigel (Corning Inc., Corning, NY, cat. 354248) for the first three passages. The two PDC lines 997537-175-T-J1-PDC and 415267-285-R-J2-PDC were cultured on uncoated flasks. The 857933-349-R-J2-PDC line was cultured in 6C/Colon 1B media containing advanced DMEM/F-12 (Thermo Fisher Scientific, cat. 12634028), 10 mM HEPES (Thermo Fisher Scientific, cat. 15630080), 1X GlutaMAX supplement (Thermo Fisher Scientific, cat. 35050061), 0.1 mg/mL primocin (InvivoGen, San Diego, CA, cat. ant-pm-2), 10% defined fetal bovine serum, heat inactivated (HyClone Laboratories Inc., Logan, UT, cat. SH30070.03HI), 50% L-WRN conditioned media (ATCC, cat. CRL-3276), 1.25 mM N-Acetyl-L-cysteine (Sigma-Aldrich, cat. A9165), 10 mM nicotinamide (Sigma-Aldrich, cat. N0636), 1X B-27 supplement (Thermo Fisher Scientific, cat. 17504044), 1X N-2 supplement (Thermo Fisher Scientific, cat. […]

pIC50: −log10 of the molar value. Values joined by “and” are separate entries in the source; they are usually repeats but may differ in a detail not shown here. Equal values may be shown once. Bounds are passed on as bounds.
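Note: spheroids exposed to compounds for seven days.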

For orientation: viability, T/C means the ratio of treated to control. Usually pIC50 stands for −log10 of the IC50, conventionally taken in molar units. On to `O=c1[nH]cc(F)c(=O)[nH]1`, for which the viability, T/C runs as follows: (compound 0.0316 µM) 88.9% and 104% and 92.7%; (compound 0.1 µM) 89.7% and 103% and 117%; (compound 0.316 µM) 97.9% and 120% and 108%; (compound 1 µM) 98% and 95% and 112%; (compound 3.16 µM) 77% and 103% and 69.6%; (compound 10 µM) 48.4% and 63.8% and 49.9%. Also, where the note is “curve of compound”, the pIC50 was 5.03 and < 5.00.
For the compound `O=C(Nc1ccc(O)c(NS(=O)(=O)c2ccc(F)cc2)c1)c1ccc(-c2ccccc2)cc1`, the viability, T/C reads like this: (compound 0.0316 µM) 108% and 109% and 99.2%; (compound 0.1 µM) 95.9% and 81.3% and 96.8%; (compound 0.316 µM) 103% and 90% and 102%; (compound 1 µM) 93.1% and 95.4% and 95.7%; (compound 3.16 µM) 114% and 98.8% and 102%; (compound 10 µM) 98% and 116% and 94.2%. For the same compound, the pIC50 (curve of compound) is less than 5.00.
With `COc1cccc2c1C(=O)c1c(O)c3c(c(O)c1C2=O)CC(O)(C(=O)CO)CC3OC1CC(N)C(O)C(C)O1` (centres undefined), the viability, T/C is 109% and 154% and 91.8% (compound 0.0316 µM); 56.6% and 106% and 42.8% (compound 0.1 µM); 0.64% and 1.27% and 0.32% (compound 1 µM); 0.26% and 1.06% and 0.23% (compound 3.16 µM); 0.49% and 1.07% and 0.37% (compound 10 µM). Besides, the negative-log IC50 (pIC50) (curve of compound) was 6.93 and 6.60 and 7.07.
`COc1cc(C2c3cc4c(cc3C(OC3OC5COC(C)OC5C(O)C3O)C3COC(=O)C23)OCO4)cc(OC)c1O` (centres undefined): the viability, T/C runs as follows: (compound 0.0316 µM) 99.9% and 94.4% and 99.1%; (compound 0.1 µM) 111% and 100% and 118%; (compound 0.316 µM) 82.8% and 130% and 71.7%; (compound 1 µM) 48.1% and 89.2% and 45.2%; (compound 3.16 µM) 30.1% and 59.8% and 27.6%; (compound 10 µM) 14.3% and 30.9% and 11.9%. For the same compound, where the note is “curve of compound”, the pIC50 is 6.00 and 5.35 and 6.09.
As to `COc1cc2cc(C(=O)CCC(=O)O)sc2cc1OC`, the viability, T/C reads like this: (compound 0.0316 µM) 92.9% and 94% and 94.8%; (compound 0.1 µM) 92.5% and 101% and 99.4%; (compound 0.316 µM) 100% and 88% and 107%; (compound 1 µM) 111% and 86% and 87.3%; (compound 3.16 µM) 94.3% and 96.3% and 101%; (compound 10 µM) 94.8% and 95.2% and 101%. Further, the pIC50 (curve of compound) was less than 5.00.
In the case of `CCCS(=O)(=O)Nc1ccc(F)c(C(=O)c2c[nH]c3ncc(-c4ccc(Cl)cc4)cc23)c1F`, the viability, T/C was 93.5% and 97.3% and 96.7% (compound 0.0316 µM); 80.9% and 85.4% and 97.5% (compound 0.1 µM); 92.2% and 94.7% and 93% (compound 0.316 µM); 90.7% and 79.6% and 82.2% (compound 1 µM); 82.9% and 100% and 89.3% (compound 3.16 µM); 64.4% and 59.1% and 42.5% (compound 10 µM). Moreover, the pIC50 (curve of compound) is < 5.00 and 5.08.
`C=CC(=O)N1CCN(c2nc(=O)n(-c3c(C)ccnc3C(C)C)c3nc(-c4c(O)cccc4F)c(F)cc23)C(C)C1` (centres undefined): the viability, T/C by setting is: (compound 0.0316 µM) 99.7% and 104% and 101%; (compound 0.1 µM) 93.3% and 94.9% and 105%; (compound 0.316 µM) 97.6% and 89.5% and 103%; (compound 1 µM) 96.6% and 85.6% and 99%; (compound 3.16 µM) 101% and 104% and 109%; (compound 10 µM) 103% and 95% and 93.3%. In addition, the pIC50 (curve of compound) was less than 5.00.
Turning to `Nc1ccn(C2OC(CO)C(O)C2(F)F)c(=O)n1` (centres undefined) + Cc1cccc(N(C)C(=O)C2C(O)CCN2c2nc(C)cc(C(F)(F)F)c2C#N)c1, the pIC50 is more than 7.50 (curve of first compound, second compound 0.0316 µM); more than 7.50 (curve of first compound, second compound 0.1 µM); more than 7.50 (curve of first compound, second compound 0.316 µM); more than 7.50 (curve of first compound, second compound 1 µM); more than 7.50 (curve of first compound, second compound 3.16 µM); more than 7.50 (curve of first compound, second compound 10 µM). For the same compound, the viability, T/C is 7.07% (second compound 0.0316 µM, first compound 0.0316 µM); 6.17% (second compound 0.0316 µM, first compound 0.1 µM); 6.28% (second compound 0.0316 µM, first compound 0.316 µM); 7.91% (second compound 0.0316 µM, first compound 1 µM); 7.05% (second compound 0.0316 µM, first compound 3.16 µM); 6.44% (second compound 0.0316 µM, first compound 10 µM). Besides, the viability, T/C runs as follows: (second compound 0.1 µM, first compound 0.0316 µM) 7.12%; (second compound 0.1 µM, first compound 0.1 µM) 6.99%; (second compound 0.1 µM, first compound 0.316 µM) 7.56%; (second compound 0.1 µM, first compound 1 µM) 8.01%; (second compound 0.1 µM, first compound 3.16 µM) 7.17%; (second compound 0.1 µM, first compound 10 µM) 6.37%. Also, the viability, T/C is, setting by setting: (second compound 0.316 µM, first compound 0.0316 µM) 7.95%; (second compound 0.316 µM, first compound 0.1 µM) 7.37%; (second compound 0.316 µM, first compound 0.316 µM) 7%; (second compound 0.316 µM, first compound 1 µM) 7.74%; (second compound 0.316 µM, first compound 3.16 µM) 7.97%; (second compound 0.316 µM, first compound 10 µM) 5.75%. For the same compound, the viability, T/C is, setting by setting: (second compound 1 µM, first compound 0.0316 µM) 8.61%; (second compound 1 µM, first compound 0.1 µM) 6.36%; (second compound 1 µM, first compound 0.316 µM) 7.13%; (second compound 1 µM, first compound 1 µM) 7.45%; (second compound 1 µM, first compound 3.16 µM) 8.07%; (second compound 1 µM, first compound 10 µM) 6.24%. The viability, T/C runs as follows: (second compound 3.16 µM, first compound 0.0316 µM) 6.68%; (second compound 3.16 µM, first compound 0.1 µM) 6.49%; (second compound 3.16 µM, first compound 0.316 µM) 6.57%; (second compound 3.16 µM, first compound 1 µM) 7.84%; (second compound 3.16 µM, first compound 3.16 µM) 7.96%; (second compound 3.16 µM, first compound 10 µM) 6.36%. Besides, the viability, T/C reads like this: (second compound 10 µM, first compound 0.0316 µM) 6.88%; (second compound 10 µM, first compound 0.1 µM) 5.82%; (second compound 10 µM, first compound 0.316 µM) 5.86%; (second compound 10 µM, first compound 1 µM) 6.97%; (second compound 10 µM, first compound 3.16 µM) 6.86%; (second compound 10 µM, first compound 10 µM) 5.93%.
With `C#Cc1c(F)ccc2cc(O)cc(-c3ncc4c(N5CC6CCC(C5)N6)nc(OCC56CCCN5CC(F)C6)nc4c3F)c12` (centres undefined), the viability, T/C (compound 0.0316 µM) is 85.1% and 95.6% and 68.7%; the viability, T/C (compound 0.1 µM) is 53.8% and 92.9% and 36.9%; the viability, T/C (compound 0.316 µM) is 20.1% and 56% and 19.9%; the viability, T/C (compound 1 µM) was 12% and 28% and 9.47%; the viability, T/C (compound 3.16 µM) was 7.06% and 18.8% and 5.67%; the viability, T/C (compound 10 µM) was 5.14% and 11.6% and 4.6%. For the same compound, the pIC50 (curve of compound) is 6.95 and 6.37 and 7.20.
Consider `O=C(c1cc(Cc2n[nH]c(=O)c3ccccc23)ccc1F)N1CCN(C(=O)C2CC2)CC1`, for which the viability, T/C is 92.4% and 106% and 120% (compound 0.0316 µM); 98.8% and 100% and 84.5% (compound 0.1 µM); 103% and 102% and 101% (compound 0.316 µM); 107% and 106% and 104% (compound 1 µM); 110% and 111% and 128% (compound 3.16 µM); 79.3% and 62% and 111% (compound 10 µM). For the same compound, under “curve of compound”, the pIC50 was less than 5.00.

(Values after PubChem BioAssay AID1963854 (Molecular Pharmacology Branch, DTP, NCI, 2024).)
